Measured values as given in the supplement of paper PMC10307832.

Tests used:
Experiment in all cases: relative viability (nuclei count vs DMSO), 5 days (fraction); higher = more cells survive
Cediranib = compound: COc1cc2c(Oc3ccc4[nH]c(C)cc4c3F)ncnc2cc1OCCCN1CCCC1 [Cediranib]
How it was run: (§1)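 Vehicle-anchored 1536-well plates of lung cancer cell lines, held overnight at 37 °C, were pinned with five library-drug doses (not always all listed) spaced by √10. No medium change followed over the next 5 days, after which the cells were fixed, permeabilised and Hoechst-stained together and imaged at 4×. Nuclei were counted with MetaXpress, and viability is treated-well nuclei over vehicle-well nuclei, taken as a median across plates. Plates passed with control CV below 25% and at least one doubling.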

Halofuginone = compound: O=C(C[C@H]1NCCC[C@@H]1O)Cn1cnc2cc(Br)c(Cl)cc2c1=O (racemic) [Halofuginone]
How it was run: as §1

Decitabine = compound: Nc1ncn([C@H]2C[C@H](O)[C@@H](CO)O2)c(=O)n1 [Decitabine]
How it was run: as §1

UMC-11
relative viability (Cediranib; 0.04 µM): 0.989
relative viability (Cediranib; 0.1265 µM): 0.748
relative viability (Cediranib; 0.4 µM): 0.88
relative viability (Cediranib; 1.265 µM): 0.69
relative viability (Cediranib; 4 µM): 0.92
relative viability (Halofuginone; 0.001 µM): 1.12
relative viability (Halofuginone; 0.003162 µM): 0.984
relative viability (Halofuginone; 0.01 µM): 0.97
relative viability (Halofuginone; 0.03162 µM): 0.901
relative viability (Halofuginone; 0.1 µM): 0.702
relative viability (Decitabine; 0.04 µM): 0.914
relative viability (Decitabine; 0.1265 µM): 0.8
relative viability (Decitabine; 0.4 µM): 0.536
relative viability (Decitabine; 1.265 µM): 0.387
relative viability (Decitabine; 2 µM, anchor plate): 0.638
relative viability (Decitabine; 4 µM): 0.419
